Experimental data taken from article PMC7609463 (Frontiers in Pharmacology, 2020).
pEC50, pIC50: −log10 of the molar value. “Also recorded” adds a separate entry of the source. Read-outs that look alike come from different tables or passages of the source.

Key:
[1] = test system: ZIKV; experiment: protection of Vero E6 cell viability against ZIKV-induced cytopathic effect (CCK-8); format: cell-based, Zika virus; conditions: Vero E6 cells
Description: Cell viability was performed by Cell Counting Kit-8 (CCK-8) (Beyotime, China). Typically, 8×10^4 cells/ml Vero E6 cells were seeded in the wells of 96-well plate at 100 μl/well and grown for 24 h. The compound 1 μl was added to the cells, after which cells were infected with ZIKV at MOI of 0.05. Ribavirin and DMSO were used as positive and negative control, respectively. […] The absorbance at 450 nm was subsequently measured using EnSpire 2300 Multilable Reader (PerkinElmer). The inhibition rate of the tested compounds was calculated with the following equation:
Inhibition rate%=100-[ODtested compound−ODmock−infected cells/ODinfected cells−ODmock−infected cells]×100%

[2] = test system: Vero E6 cells; experiment: cytotoxicity in Vero E6 cells (CCK-8); format: cell-based, African green monkey; conditions: 0.3125~40 μM
[3] = test system: ZIKV; experiment: qRT-PCR of viral RNA in ZIKV-infected Vero E6 cells; format: cell-based, Zika virus; conditions: dose-dependent
Description: To determine the viral RNA number by qRT-PCR, total intracellular RNAs were extracted from the infected cells (control and treated) by treatment with TRIzol reagent (Invitrogen, USA) according to the manufacturer’s protocol. The cDNA was synthesized using Primescript RT Master Kit (Takara, Japan). Level of viral RNA was determined by performing qRT-PCR analysis using SYBR premix Ex Taq II kit (Takara) according to the instructions. The primer sequences used for the Zika virus genes are 5’-[…]-3’ (forward) and 5’-[…]-3’ (reverse). For quantification, the 2^−ΔΔCt method was used to calculate the relative RNA levels against GAPDH.

[4] = test system: ZIKV; experiment: western blot of ZIKV NS3 expression in infected Vero E6 cells; format: cell-based, Zika virus; conditions: dose-dependent
Description: (§1) Vero E6 cells were seeded at a density of 2×10^5 cells per well in 6-well plate. After overnight incubation, 2 µl DMSO (Sigma-Aldrich) or 2 µl chemical compounds were added to each well at the designated concentration. Then cells were infected with ZIKV at MOI of 0.05. Ribavirin and DMSO were used as positive and negative control, respectively. After a further incubation for 72 h at 37°C, cells were lysed with 100 μl of lysis buffer (50mM Tris, 150mM NaCl, 1% NP-40, 0.5% sodium deoxycholate, pH 7.4). Cell lysate was subjected to denaturing gel electrophoresis with 10% Bis-Tris Gel. The proteins were transferred onto PVDF membranes (Millipore, USA) and immunoblotted with indicated antibodies. The following antibodies were used for the detection of proteins: Anti-NS2B antibody (GTX133308, 1:1,000, GeneTex), Anti-NS3 antibody(GTX133320, 1:1,000, GeneTex), Anti-NS4A antibody (GTX133704, 1:1,000, GeneTex), Anti-prM antibody, Anti-β actin antibody (mAbcam 8224, 1:5000, Abcam) was used as a loading control. […]
(§2) Quantification of signals on Western blots was done using the Image pro 10 (Media cybernetics, USA) Imaging and Processing Analysis Software with signaling intensity normalized to loading control. […] Membranes were imaged and quantified in 800 nm channelsin the Odyssey Infrared Imaging System using Odyssey V3.0 software (LI-COR, Lincoln, NE).

[5] = test system: ZIKV; experiment: western blot of viral protein in ZIKV-infected U-87 MG cells; format: cell-based, Zika virus; conditions: dose-dependent
[6] = test system: ZIKV; experiment: time-of-drug-addition assay (qRT-PCR, Vero E6); format: cell-based, Zika virus; conditions: ZP10 25 μM or antibody 0.1 μg/ml, Vero E6, 24 hpi
Description: For the pre-treatment group, Vero E6 cells were seeded 12-well plates (2.5×10^5 cells/well). […] Next, Vero E6 cells were washed with PBS once before the addition of mixture. The 600 μl mixture was added into cells for 1 h at 4°C. […] Infected cells were collected at 24 hpi. The cell lysate was collected for viral RNA copies measurement using qRT-PCR. DMSO was included as negative control. The experiments were performed in triplicate and repeated twice for confirmation.

[7] = test system: ZIKV polyprotein precursor cleavage by ZIKVpro; experiment: western blot of viral polyprotein precursor processing in ZIKV-infected Vero E6 cells; format: cell-based, Zika virus; conditions: especially at 6.25 µM
Description: as §1, §2

[8] = test system: ZIKVpro; conditions: 2017, read-out: IC50 against ZIKVpro, cited from earlier work
[9] = biological target: T1, ZIKV NS2B-NS3 protease (ZIKVpro) (Zika virus, UniProt A0A024B7W1); experiment: fluorescence-based ZIKVpro protease inhibition screening assay (Bz-nKKR-AMC substrate); format: biochemical; conditions: for inhibition at 20 µM: read-out: Inhibition Activity% (primary high-throughput screening); for pIC50: 150 nM ZIKVpro, 1 h preincubation at 37 °C, 50 μM Bz-nKKR-AMC
T1 construct: The cDNA coding for residues 45–96 of ZIKV NS2B; the N terminus of NS3 (residues 1–177); poly-histidine tag (C); made in house; host or cells: E. coli BL21(DE3), pET28a (NcoI/XhoI)
Description: For initial screening, each compound was dissolved in dimethyl sulfoxide (DMSO) to obtain 20 mM stock solution. […] The reaction was started by addition of Bz-nKKR-AMC substrate at 50 µM and fluorescence readings were measured at 30 s intervals over 10 min using Enspire (Perkin Elmer, USA) at excitation wavelength(λex) at 360 nm and emission wavelength(λem) at 460 nm. Assays were carried out as triplicates at 37 °C.
The protease activity of the DMSO control was set as 100%. The protease activities with compounds were set as percentage of the DMSO control. Data was fitted using the log(inhibitor) vs. response - variable slope (four parameters) model within the graphpad prism 7.0 software.
Inhibition activity=100-[S–S0/C−C0]×100%
S: the RFUs of the test sample (enzyme, inhibitor, buffer, and substrate) after 10 min of reaction
S0: the RFUs of the tested samples at time zero.
C: the RFUs of the control (enzyme, buffer, and substrate) after 10 min of reaction
C0: the RFUs of the control at time zero

[10] = biological target: T2, ZIKV NS2B-NS3 protease (ZIKVpro, gZiPro) (Zika virus, UniProt A0A024B7W1); experiment: Octet bio-layer interferometry binding assay with biotinylated ZIKVpro (gZiPro); conditions: for Response (Octet binding assay): compound 50 µM, biotinylated ZIKVpro, binding profile as nm shift; for binding to ZIKVpro in Octet assay: compound 50 μM
T2 construct: The cDNA coding for residues 45–96 of ZIKV NS2B; the N terminus of NS3 (residues 1–177); poly-histidine tag (C); made in house; host or cells: E. coli BL21(DE3), pET28a (NcoI/XhoI)
Description: Intermolecular interactions between gZiPro and selected compounds were detected by using BLI technology on the ForteBio Octet Red system (Pall FortéBio, Inc, Menlo Park, USA). The biotinylated protein gZipro was immobilized onto super streptavidin biosensors (Pall FortéBio Inc.), and then blocked with biocytin (Sigma). […] Sensorgrams were double-referenced, corrected for solvent effects, and then fit using OctetRed user software (Pall FortéBio Inc.). The binding profile of each sample was summarized as an “nm shift” (the wavelength or spectral shift in nanometers), which represented the difference between the start and end of the kinetic cycle. Steady-state and kinetic responses were fit to a simple binding model to obtain values for association (Kon) and dissociation (Koff) rate constants and the equilibrium dissociation constant (Kd). The Langmuir’s 1:1 binding model was applied to fit the interferometry data.

[11] = test system: dengue virus; parameters: method as in Constant et al., 2018; conditions: ref Constant et al., 2018; read-out: EC50 of inhibiting viral growth; cited from earlier work
[12] = biological target: viral proteinase NS2B/3; parameters: method as in Constant et al., 2018; conditions: ref Constant et al., 2018; read-out: IC50 of enzymatic activity of the viral proteinase; cited from earlier work
[13] = test system: CCCC[C@H](NC(=O)c1ccccc1)C(=O)N[C@@H](CCCCN)C(=O)N[C@@H](CCCCN)C(=O)N[C@@H](CCCNC(=N)N)C(=O)Nc1ccc2c(C)cc(=O)oc2c1; experiment: purified protein, by the assay type; conditions: other: substrate 5 to 320 µM, 150 nM protease, 37 °C, pH 7.5
Description: Proteolytic activity of NS2B-NS3 protease was measured using benzoyl-norleucine-lysine-lysine-arginine 7-amino-4-methylcoumarine (Bz-nKKR-AMC). Bz-nKKR-AMC substrate with starting concentration of 300 μM was serially diluted two times in reaction buffer (50 mM Tris-HCl, pH 7.5, 150 mM NaCl) and added to 96-well black plate (Costar, USA) with 150 nM protein diluted in the same buffer. For kinetics measurements, fluorescence readings were measured at 30 s interval for 5 min using Enspire (Perkin Elmer) at excitation wavelength (λex) at 360 nm and emission wavelength (λem) at 460 nm. Assays were carried out as triplicates at 37 °C. Michaelis-Menten constant (Km) was calculated by graphpad prism5.0.

T1 sequence (A0A024B7W1 1417-1468): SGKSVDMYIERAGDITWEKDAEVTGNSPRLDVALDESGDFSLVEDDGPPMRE
T1 sequence (A0A024B7W1 1503-1679): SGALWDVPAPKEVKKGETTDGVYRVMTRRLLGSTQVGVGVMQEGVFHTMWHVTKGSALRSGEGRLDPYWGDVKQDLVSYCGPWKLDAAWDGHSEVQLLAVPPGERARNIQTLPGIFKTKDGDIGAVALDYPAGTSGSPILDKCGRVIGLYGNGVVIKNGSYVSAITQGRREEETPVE
T2 sequence (A0A024B7W1 1417-1468): as the sequence (A0A024B7W1 1417-1468) above
T2 sequence (A0A024B7W1 1503-1679): as the sequence (A0A024B7W1 1503-1679) above

Compound: O=C(OC1Cc2c(O)cc(O)cc2OC1c1cc(O)c(=O)c2c(O)c(O)cc(C3Oc4cc(O)cc(O)c4CC3OC(=O)c3cc(O)c(O)c(O)c3)c2c1)c1cc(O)c(O)c(O)c1 (stereo not shown) [ZP10, theaflavin-3,3’-digallate]
- ZIKV-induced CPE (cell morphology) ([1]; 72 hpi, ZP10 6.25 µM to 25.0 µM): attenuated to a large extent
- pEC50 ([1]; Zika virus, Vero C1008, MOI 0.05, CCK-8 read-out, read-out: EC50 of inhibition of ZIKV replication (CPE protection)): 5.12
- cytotoxicity (cell viability, CCK-8) [2]: minor cytotoxicity up to 40 μM; also recorded: low cytotoxicity
- viral RNA copy numbers [3]: markedly reduced
- NS3 protein expression [4]: markedly reduced
- viral protein expression (NS3 and envelope) [5]: considerably reduces
- effect on ZIKV entry / replication when added before or after virus adsorption (0–1 hpi) [6]: no effect of ZP10 on ZIKV entry
- cleavage processing of polyprotein precursor (PP) [7]: impaired cleavage processing of PP

Compound: O=c1cc(-c2ccc(O)cc2)oc2cc(O)cc(O)c12 [Apigenin]
- pIC50 ([8]; ref Roy et al.): 4.25

Compound: Cc1cc2c(C(C)C)c(O)c(O)c(C=O)c2c(O)c1-c1c(C)cc2c(C(C)C)c(O)c(O)c(C=O)c2c1O [ZP4]
- inhibition at 20 µM [9]: 59.7%
- Response (Octet binding assay) [10]: -0.046

Compound: CCCCCCCCCCCCCc1cccc(O)c1C(=O)O [ZP9]
- pIC50 [9]: 5.85
- inhibition at 20 µM [9]: 82.2%
- Response (Octet binding assay) [10]: -0.0005

Compound: O=C(OC[C@H]1O[C@@H](OC(=O)c2cc(O)c(O)c(OC(=O)c3cc(O)c(O)c(O)c3)c2)[C@H](OC(=O)c2cc(O)c(O)c(OC(=O)c3cc(O)c(O)c(O)c3)c2)[C@@H](OC(=O)c2cc(O)c(O)c(OC(=O)c3cc(O)c(O)c(O)c3)c2)[C@@H]1OC(=O)c1cc(O)c(O)c(OC(=O)c2cc(O)c(O)c(O)c2)c1)c1cc(O)c(O)c(OC(=O)c2cc(O)c(O)c(O)c2)c1 [ZP3, tannic acid]
- binding to ZIKVpro in Octet assay [10]: direct binding
- Response (Octet binding assay) [10]: 0.1091

Compound: O=C1c2c(O)ccc([N+](=O)[O-])c2C(=O)c2c([N+](=O)[O-])ccc(O)c21 [ARDP006]
- pEC50 [11]: 5.38
- pIC50 [12]: 3.36

Compound: O=c1c(O)c(-c2cc(O)c(O)c(O)c2)oc2cc(O)cc(O)c12 [Myricetin, myricetin]
- pIC50 [9]: 4.31
- pIC50 ([8]; ref Lim et al.): 4.66
- pIC50 ([8]; ref Roy et al.): 5.89

Compound: ZIKV NS2B-NS3 protease (ZIKVpro) (Zika virus ZIKV/H. sapiens/FrenchPolynesia/10087PF/2013)
- Km [13]: 30.51 µM

Compound: merbromin [ZP1]
- pIC50 [9]: 5.04
- binding to ZIKVpro in Octet assay [10]: direct binding
- Response (Octet binding assay) [10]: 1.0863
